Converted amounts (≈) assume the structure as drawn. Where two headings read alike, the source gives them in different places.
What was measured:
[1] = system: S. aureus FDA209P (ATCC 6538P); test: microbe, parasite or virus in culture; assay type: cell-based, Staphylococcus aureus; details: Staphylococcus aureus
In short: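 Overnight TSB cultures at 37 °C adjusted to A578 0.3, diluted 500-fold in CAMHB and mixed 1:1 with compound in CAMHB; static overnight incubation at 37 °C. MIC reported in mg/L; Mu50 NR-1 also tested in some runs.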

GyrA(wt) + GyrB(wt) = target: T1, GyrA(wt) + GyrB(wt) (Staphylococcus aureus, UniProt P20831); test: DNA cleavage assay with GyrA(wt) and GyrB(wt); assay type: biochemical
T1 construct: made in house; host or cells: E. coli BL21(DE3)
Text: The gene sequence encoding the wild-type GyrA of Staphylococcus aureus (henceforth also referred to as “GyrA(wt)”) shown as SEQ ID NO: 1 was cloned into the plasmid pMAL-c2 (produced by New England Biolabs) (the resultant is henceforth also referred to as “pMAL-c2-gyrA”).
The gene sequence encoding the wild-type GyrB of Staphylococcus aureus (henceforth also referred to as “GyrB(wt)”) shown as SEQ ID NO: 2 was cloned into the plasmid pMAL-c2 (produced by New England Biolabs) (the resultant is henceforth also referred to as “pMAL-c2-gyrB”).
E. coliBL21(DE3) (produced by Invitrogen) was transformed with pMAL-c2-gyrA mentioned above, with pMAL-c2-gyrB mentioned above, or with pMAL-c2-SAGAmut84 containing a mutant gyrA encoding the amino acid sequence of GyrA(wt) in which serine residue at the 84th position from the amino terminus is substituted with a leucine residue (see, Hiramatsu K., Igarashi M., Morimoto Y, Baba T., Umekita M., Akamatsu Y., Int. J. Antimicrob. Agents, 2012 June; 39(6), 478-85). To the culture medium of the resulting transformed Escherichia coli, 1 mM […] (produced by Wako Pure Chemical Industries) was added to induce expression of maltose-binding GyrA(wt), maltose-binding GyrB(wt), or maltose-binding mutant GyrA(S84L), and the bacterium was cultured overnight at 25° C. After completion of the culture, the cells were collected, and suspended in a buffer (20 mM Tris-HCl (pH 8.0), 200 mM sodium chloride, 1 mM ethylenediaminetetraacetic acid (EDTA), 1 mM dithiothreitol (DTT)), a protein extracting reagent (10× BugBuster (registered trademark), produced by Novagen) in a volume of 1/10 of the volume of the buffer, and 2.5 μL/10 mL of the buffer of Benzonase (registered trademark) nuclease (produced by Novagen) were added, the mixture was left standing at 25° C. for 30 minutes, and the cells were disrupted and lysed to obtain a disrupted cell suspension containing the maltose-binding GyrA(wt), maltose-binding GyrB(wt), or maltose-binding mutant GyrA(S84L).
Then, each disrupted cell suspension mentioned above was added to a column filled with an amylose resin covalently bound with maltose (produced by Novagen). A buffer (20 mM Tris-HCl (pH 8.0), 200 mM sodium chloride, 1 mM EDTA) containing 10 mM maltose was added to the column to elute the maltose-binding GyrA(wt), maltose-binding GyrB(wt), and maltose-binding mutant GyrA(S84L).
To each eluate, 4 units/1 mL of the eluate of protease (Factor Xa, produced by Amersham) was added, and the mixture was left standing at 25° C. for 3 hours and 30 minutes to cleave the maltose-binding proteins, GyrA(wt), GyrB(wt), and mutant GyrA(S84L) from the maltose-binding GyrA(wt), maltose-binding GyrB(wt), and maltose-binding mutant GyrA(S84L).
Then, GyrA(wt), GyrB(wt), and mutant GyrA(S84L) were concentrated by using an ultrafiltration unit (YM-50 Filter Unit, produced by Millipore).
The concentrated GyrA(wt), GyrB(wt), and mutant GyrA(S84L) were each suspended in a buffer (35 mM Tris-HCl (pH 7.5), 24 mM potassium chloride, 6 mM magnesium chloride, 1.8 mM spermidine, 0.36 mg/mL bovine serum albumin, 5 mM DTT, 50 volume % glycerol) at a concentration of 1 μg/μL for GyrA(wt), 2 μg/μL for GyrB(wt), or 1 μg/μL for mutant GyrA(S84L).
A substrate plasmid DNA, pTWV228 (0.4 μg, produced by Takara Bio), and levofloxacin (LVFX) or apigenin were added to a buffer (35 mM Tris-HCl (pH 7.5), 24 mM potassium chloride, 6 mM magnesium chloride, 1.8 mM spermidine, 0.36 mg/mL bovine serum albumin, 5 mM DTT), and 0.15 μL of the enzyme solution of GyrA(wt) and […] of the enzyme solution of GyrB(wt) were added to the mixture to prepare a reaction mixture in a total volume of 20
Levofloxacin was added at a final concentration of 0, 0.5, 1, 2, 4, 8, 16, or 32 μg/mL.
The aforementioned reaction solution was left standing at 25° C. for 30 minutes to allow the reaction. […]

[2] = Example 2, Table 12, read-out: MIC (mg/L) S. aureus FDA209P
[3] = Example 3, Table 13, read-out: MIC (mg/L) FDA209P (w, w)

SMILES | MIC [1, 2] [mg/L] | MIC [1, 3] [mg/L] | Ratio of cleaved DNA (%) (GyrA(wt) + GyrB(wt); 2 μg/mL, Table 14) | Ratio of substrate plasmid DNA (%) (GyrA(wt) + GyrB(wt); 2 μg/mL, Table 14) | Ratio of cleaved DNA (%) (GyrA(wt) + GyrB(wt); 4 μg/mL, Table 14) | Ratio of substrate plasmid DNA (%) (GyrA(wt) + GyrB(wt); 4 μg/mL, Table 14) | Ratio of cleaved DNA (%) (GyrA(wt) + GyrB(wt); 8 μg/mL, Table 14) | Ratio of substrate plasmid DNA (%) (GyrA(wt) + GyrB(wt); 8 μg/mL, Table 14) | Ratio of cleaved DNA (%) (GyrA(wt) + GyrB(wt); 16 μg/mL, Table 14) | Ratio of substrate plasmid DNA (%) (GyrA(wt) + GyrB(wt); 16 μg/mL, Table 14) | Ratio of cleaved DNA (%) (GyrA(wt) + GyrB(wt); 32 μg/mL, Table 14) | Ratio of substrate plasmid DNA (%) (GyrA(wt) + GyrB(wt); 32 μg/mL, Table 14) | other results
C[C@H]1COc2c(N3CCN(C)CC3)c(F)cc3c(=O)c(C(=O)O)cn1c23 [Levofloxacin, levofloxacin, reference compound] | 0.125 (≈ 0.346 µM) | 0.125 (≈ 0.346 µM) | 58 | 42 | 61 | 39 | 64 | 36 | 70 | 30 | 67 | 33 | Ratio of cleaved DNA (%) (GyrA(wt) + GyrB(wt); 0.5 μg/mL, Table 14): 32%; Ratio of substrate plasmid DNA (%) (GyrA(wt) + GyrB(wt); 0.5 μg/mL, Table 14): 68%; Ratio of cleaved DNA (%) (GyrA(wt) + GyrB(wt); 1 μg/mL, Table 14): 43%; Ratio of substrate plasmid DNA (%) (GyrA(wt) + GyrB(wt); 1 μg/mL, Table 14): 57%; Ratio of cleaved DNA (%) (GyrA(wt) + GyrB(wt); 4 μg/mL, Table 18): 73%; Ratio of substrate plasmid DNA (%) (GyrA(wt) + GyrB(wt); 4 μg/mL, Table 18): 27%; IC50 (GyrA(wt) + GyrB(wt); Example 4, Table 14, from ratio of cleaved DNA, read-out: IC50 (μg/mL) GyrA(wt) + GyrB(wt) (converted)): 5.53 µM
O=c1cc(-c2ccc(O)cc2)oc2cc(O)cc(O)c12 [No. 7, 4′,5,7-Trihydroxyflavone] | > 128 | > 128 | 34 | 66 | 35 | 65 | 36 | 64 | 35 | 65 | 40 | 60 | MIC ([1]; Example 1, Tables 1 to 10, read-out: MIC (mg/L) FDA209P): > 128 mg/L; Ratio of cleaved DNA (%) (GyrA(wt) + GyrB(wt); 64 μg/mL, Table 14): 43%; Ratio of substrate plasmid DNA (%) (GyrA(wt) + GyrB(wt); 64 μg/mL, Table 14): 57%; inhibitory activity against the wild-type DNA gyrase (GyrA(wt) + GyrB(wt); FIG. 1 and 2): did not exhibit any inhibitory activity; IC50 (GyrA(wt) + GyrB(wt); IC50 (μg/mL) GyrA(wt) + GyrB(wt), Example 4, Table 14, from ratio of cleaved DNA): > 474 µM; IC50 (GyrA(wt) + GyrB(wt); IC50 GyrA(wt) and GyrB(wt), value in μM): > 474 µM

Source: patent publication US20150322033A1, “ANTIBACTERIAL AGENT” (priority 2012, published 2015)
